Source: ChEMBL document CHEMBL4725417, “Membrane Permeable, Bioreversibly Modified Prodrugs of Nucleoside Diphosphate-γ-Phosphonates” (J Med Chem, 2020)
The source made the active and inactive calls. The calls are words filed in the database; no cut-off is given here.

Columns and labels:
[1] = target: T1, DNA polymerase alpha catalytic subunit (Homo sapiens) (UniProt P09884); experiment: Substrate activity at human DNA polymerase alpha incubated at 37 degC for 60 mins and at 80 degC for 7 mins by primer extension assay; conditions: time 67.0 min
T1 sequence (whole entry): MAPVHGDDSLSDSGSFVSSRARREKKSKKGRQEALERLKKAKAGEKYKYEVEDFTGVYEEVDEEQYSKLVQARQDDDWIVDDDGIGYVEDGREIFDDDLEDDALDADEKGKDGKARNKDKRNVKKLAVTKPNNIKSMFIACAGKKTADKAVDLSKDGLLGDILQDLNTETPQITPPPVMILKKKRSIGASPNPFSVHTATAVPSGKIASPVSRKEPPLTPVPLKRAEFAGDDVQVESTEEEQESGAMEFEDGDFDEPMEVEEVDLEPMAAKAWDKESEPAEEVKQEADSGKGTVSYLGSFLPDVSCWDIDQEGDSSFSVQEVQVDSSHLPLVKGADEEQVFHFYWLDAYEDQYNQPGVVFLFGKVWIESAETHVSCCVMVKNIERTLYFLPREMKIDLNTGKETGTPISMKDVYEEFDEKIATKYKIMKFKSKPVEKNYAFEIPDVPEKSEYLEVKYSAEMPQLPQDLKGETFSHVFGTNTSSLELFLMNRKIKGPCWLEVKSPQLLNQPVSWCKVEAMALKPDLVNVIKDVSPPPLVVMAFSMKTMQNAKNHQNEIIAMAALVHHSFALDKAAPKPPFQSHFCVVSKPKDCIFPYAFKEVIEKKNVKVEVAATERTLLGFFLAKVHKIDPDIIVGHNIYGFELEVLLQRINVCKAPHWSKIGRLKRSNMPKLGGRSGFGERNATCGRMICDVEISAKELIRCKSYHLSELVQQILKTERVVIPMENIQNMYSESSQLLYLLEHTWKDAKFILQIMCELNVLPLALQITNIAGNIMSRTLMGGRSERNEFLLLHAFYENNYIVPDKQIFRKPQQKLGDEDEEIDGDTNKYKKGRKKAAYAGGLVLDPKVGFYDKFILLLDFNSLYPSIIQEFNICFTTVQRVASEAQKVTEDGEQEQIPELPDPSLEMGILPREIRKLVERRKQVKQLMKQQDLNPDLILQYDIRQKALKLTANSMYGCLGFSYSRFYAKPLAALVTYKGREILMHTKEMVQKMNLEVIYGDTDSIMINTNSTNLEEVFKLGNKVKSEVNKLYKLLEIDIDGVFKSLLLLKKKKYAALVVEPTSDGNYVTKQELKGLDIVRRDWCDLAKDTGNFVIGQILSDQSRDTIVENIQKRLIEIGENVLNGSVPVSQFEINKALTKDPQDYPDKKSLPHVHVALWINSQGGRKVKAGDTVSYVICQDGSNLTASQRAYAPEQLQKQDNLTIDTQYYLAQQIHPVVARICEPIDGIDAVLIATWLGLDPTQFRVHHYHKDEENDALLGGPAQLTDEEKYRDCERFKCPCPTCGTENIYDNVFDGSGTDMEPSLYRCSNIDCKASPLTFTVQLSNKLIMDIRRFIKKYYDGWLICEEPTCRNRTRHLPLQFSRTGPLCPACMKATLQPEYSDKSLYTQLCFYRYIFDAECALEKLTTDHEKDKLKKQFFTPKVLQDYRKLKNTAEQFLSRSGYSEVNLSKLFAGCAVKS

[2] = Cytotoxicity in human CEM cells assessed as reduction in cell proliferation; type: cell-based; conditions: CEM cells (CCRF-CEM)
[3] = species: Homo sapiens; experiment: Substrate activity at human DNA polymerase gamma incubated at 37 degC for 60 mins and at 80 degC for 7 mins by primer extension assay; conditions: time 67.0 min
[4] = target: DNA polymerase beta (Homo sapiens) (UniProt P06746); experiment: Substrate activity at human DNA polymerase beta incubated at 37 degC for 60 mins and at 80 degC for 7 mins by primer extension assay; conditions: time 67.0 min
[5] = Half life assessed as pig liver esterase-mediated compound hydrolysis at 6 mM by HPLC analysis; type: ADME, Sus scrofa
[6] = Half life in pH 7.3 PBS buffer at 1.4 mM by HPLC analysis; type: physicochemical
[7] = tested on: Human immunodeficiency virus 2; experiment: Antiviral activity against HIV2 ROD infected in human TK-deficient CEM/TK- T-cells assessed as reduction in virus-induced cytopathogenicity by measuring syncytia cell formation incubated for 4 to 5 days by microscopy; conditions: Human immunodeficiency virus 2, ISOLATE ROD
[8] = tested on: Human immunodeficiency virus 1; experiment: Antiviral activity against HIV1 3B infected in human CEM/0 CD4+ T cells assessed as reduction in virus-induced cytopathogenicity by measuring syncytia cell formation incubated for 4 to 5 days by microscopy; type: functional, organism-based; conditions: Human immunodeficiency virus 1, 3B, CCRF-CEM
[9] = Half life in human CEM/0 cell extracts at 6 mM by HPLC analysis; type: ADME, tissue-based, CCRF-CEM
[10] = tested on: Human immunodeficiency virus 2; experiment: Antiviral activity against HIV2 ROD infected in human CEM/0 CD4+ T cells assessed as reduction in virus-induced cytopathogenicity by measuring syncytia cell formation incubated for 4 to 5 days by microscopy; conditions: Human immunodeficiency virus 2, ISOLATE ROD, CCRF-CEM
[11] = target: Human immunodeficiency virus type 1 reverse transcriptase (Human immunodeficiency virus 1) (UniProt Q72547); experiment: Substrate activity at HIV1 reverse transcriptase incubated at 37 degC for 30 mins and at 80 degC for 7 mins by primer extension assay; conditions: time 37.0 min

Structure (SMILES) | Activity [1] | CC50 [2] [µM] | Activity [3] | Activity [4] | half-life at 6000 µM [5] [h] | half-life at 1400 µM [6] [days] | EC50 [7] [µM] | EC50 [8] [µM] | half-life at 6000 µM [9] [h] | EC50 [10] [µM] | Activity [11]
Cc1cn([C@H]2C=C[C@@H](CO)O2)c(=O)[nH]c1=O [STAVUDINE] | inactive | > 50 | inactive | Active |  |  |  |  |  |  | 
CCCCCCCCCCCCP(=O)(OCc1ccc(OC(=O)OCCCCCCCCCCC)cc1)OP(=O)(O)OP(=O)(O)OC[C@@H]1C=C[C@H](n2cc(C)c(=O)[nH]c2=O)O1.N.N (stereo not given in full) |  | 39 |  |  | 10.6 | 47.9 | 0.32 | 0.04 | > 10 | 0.11 | 
CCCCCCCCCCCCP(=O)(OCc1ccc(OC(=O)CCCC)cc1)OP(=O)(O)OP(=O)(O)OC[C@@H]1C=C[C@H](n2cc(C)c(=O)[nH]c2=O)O1.N.N (stereo not given in full) |  | 86 |  |  | 0.013 | 8.96 | 3.43 | 0.065 | 0.81 | 0.025 | 
CCCCCCCCCCCCCCP(=O)(OCc1ccc(OC(=O)OCCCC)cc1)OP(=O)(O)OP(=O)(O)OC[C@@H]1C=C[C@H](n2cc(C)c(=O)[nH]c2=O)O1.N.N (stereo not given in full) |  | 32 |  |  | 0.032 | 21.6 | 1.76 | 0.12 | 64 | 0.22 | 
CCCCCCCCCCCCCCP(=O)(OCc1ccc(OC(=O)CCCC)cc1)OP(=O)(O)OP(=O)(O)OC[C@@H]1C=C[C@H](n2cc(C)c(=O)[nH]c2=O)O1.N.N (stereo not given in full) |  | 56 |  |  | 0.081 | 21.2 | 0.53 | 0.031 | 4.5 | 0.16 | 
CCCCCCCCCCCCCCCCCCP(=O)(OCCC#N)OP(=O)(O)OP(=O)(O)OC[C@@H]1C=C[C@H](n2cc(C)c(=O)[nH]c2=O)O1.N.N (stereo not given in full) |  | 38 |  |  | > 150 | 20 | 0.14 | 0.095 | > 10 | 0.046 | 
CCCCCCCCCCCCP(=O)(OCc1ccc(OC(=O)CCCCCCCCCCC)cc1)OP(=O)(O)OP(=O)(O)OC[C@@H]1C=C[C@H](n2cc(C)c(=O)[nH]c2=O)O1.N.N (stereo not given in full) |  | 37 |  |  | 0.917 | 38.3 | 0.066 | 0.0074 | > 8 | 0.091 | 
CCCCCCCCCCCCCCCCCCP(=O)(OCc1ccc(OC(=O)OCCCC)cc1)OP(=O)(O)OP(=O)(O)OC[C@@H]1C=C[C@H](n2cc(C)c(=O)[nH]c2=O)O1.N.N (stereo not given in full) |  | 16 |  |  | 1.04 | 51.7 | 0.032 | 0.0018 | > 10 | 0.026 | 
CCCCCCCCCCCCP(=O)(O)OP(=O)(O)OP(=O)(O)OC[C@@H]1C=C[C@H](n2cc(C)c(=O)[nH]c2=O)O1.N.N.N | inactive | > 100 | inactive | inactive | > 150 | > 125 | 41.1 | 0.15 | > 30 | 0.17 | Active
CCCCCCCCCCCCP(=O)(OCc1ccc(OC(=O)OC)cc1)OP(=O)(O)OP(=O)(O)OC[C@@H]1C=C[C@H](n2cc(C)c(=O)[nH]c2=O)O1.N.N (stereo not given in full) |  | > 100 |  |  | 0.7 | 5.12 | 36.8 | 0.095 | 0.65 | 0.35 | 
CCCCCCCCCCCCCCCCCCP(=O)(OCc1ccc(OC(=O)CCCC)cc1)OP(=O)(O)OP(=O)(O)OC[C@@H]1C=C[C@H](n2cc(C)c(=O)[nH]c2=O)O1.N.N (stereo not given in full) |  | 19 |  |  | 2 | 26.9 | 0.042 | 0.0074 | 6.7 | 0.021 | 
CCCCCCCCCCCCCCCCCCP(=O)(O)OP(=O)(O)OP(=O)(O)OC[C@@H]1C=C[C@H](n2cc(C)c(=O)[nH]c2=O)O1.N.N.N | inactive | 21 | inactive | inactive | > 80 | 22.3 | 1.58 | 0.046 | > 30 | 0.11 | inactive
CCCCCCCCCCCCP(=O)(OCc1ccc(OC(C)=O)cc1)OP(=O)(O)OP(=O)(O)OC[C@@H]1C=C[C@H](n2cc(C)c(=O)[nH]c2=O)O1.N.N (stereo not given in full) |  | > 100 |  |  | 0.46 | 4.29 | 26.3 | 0.023 | 0.043 | 0.021 | 
CCCCCCCCCCCCP(=O)(OCc1ccc(OC(=O)OCCCC)cc1)OP(=O)(O)OP(=O)(O)OC[C@@H]1C=C[C@H](n2cc(C)c(=O)[nH]c2=O)O1.N.N (stereo not given in full) |  | 38 |  |  | 0.009 | 14.4 | 9.9 | 0.097 | 4.3 | 0.2 | 
CCCCCCCCCCCCP(=O)(OCCC#N)OP(=O)(O)OP(=O)(O)OC[C@@H]1C=C[C@H](n2cc(C)c(=O)[nH]c2=O)O1.N.N (stereo not given in full) |  | > 100 |  |  | > 80 | 6.17 | 20.9 | 0.21 | > 15 | 0.087 | 
